# Experimental data reported in patent publication US20040077601A1, “Methods and compositions relating to isoleucine boroproline compounds” (Point Therapeutics, Inc., priority 2002, published 2004).
# Assays:
# [1] = target: serum DPP-IV (Mus musculus, UniProt P28843); test: Serum DPP-IV activity in mice two hours after administration (indicator of bioavailability); type: in vivo; settings: 0.2-, 2.0-, 20-, 200-μg doses, subcutaneous injection vs oral gavage, serum two hours later
# [2] = system: WEHI 164 tumor cells; test: WEHI 164 mouse tumor model (subcutaneous inoculation of 4×10^6 tumor cells); type: in vivo, mice; settings: for Tumor sizes, subcutaneous compared to oral: day 20; for Tumor sizes (mean tumor volumes) on day 20 versus saline control: all 3 doses, twice daily day 2 to day 19, n=10; for Incidence of tumor rejection (%): recorded on day 20
# Description: FIG. 2. Comparison of the anti-tumor activity of Ile-boroPro administered orally or by subcutaneous injection in the WEHI 164 mouse tumor model. Mice were inoculated subcutaneously with 4×10^6 tumor cells and administered Ile-boroPro twice daily from day 2 to day 19 after tumor inoculation, either by oral gavage (open bars) or subcutaneous injection (solid bars). Control mice received saline (hatched bar). The data represent mean tumor volumes±SEM (n=10) were recorded on day 20.
# Mice were inoculated subcutaneously with 4×10^6 WEHI 164 tumor cells and administered 2-, 5- or 10-μg doses of Ile-boroPro twice daily from day 2 to […] after tumor inoculation, either by oral gavage or subcutaneous injection. Control mice received saline. […] The greater efficacy of subcutaneous administration was also reflected in the incidence of tumor rejection in mice receiving treatment with the various doses of Ile-boroPro (Table 2). […] It should be noted that tumor rejection was never observed in mice inoculated with WEHI 164 and treated with saline.
# [3] = system: chemokine KC; test: Serum levels of the chemokine KC by ELISA in mice after administration
# serum DPP-IV, sequence (P28843 37-760 limits assumed): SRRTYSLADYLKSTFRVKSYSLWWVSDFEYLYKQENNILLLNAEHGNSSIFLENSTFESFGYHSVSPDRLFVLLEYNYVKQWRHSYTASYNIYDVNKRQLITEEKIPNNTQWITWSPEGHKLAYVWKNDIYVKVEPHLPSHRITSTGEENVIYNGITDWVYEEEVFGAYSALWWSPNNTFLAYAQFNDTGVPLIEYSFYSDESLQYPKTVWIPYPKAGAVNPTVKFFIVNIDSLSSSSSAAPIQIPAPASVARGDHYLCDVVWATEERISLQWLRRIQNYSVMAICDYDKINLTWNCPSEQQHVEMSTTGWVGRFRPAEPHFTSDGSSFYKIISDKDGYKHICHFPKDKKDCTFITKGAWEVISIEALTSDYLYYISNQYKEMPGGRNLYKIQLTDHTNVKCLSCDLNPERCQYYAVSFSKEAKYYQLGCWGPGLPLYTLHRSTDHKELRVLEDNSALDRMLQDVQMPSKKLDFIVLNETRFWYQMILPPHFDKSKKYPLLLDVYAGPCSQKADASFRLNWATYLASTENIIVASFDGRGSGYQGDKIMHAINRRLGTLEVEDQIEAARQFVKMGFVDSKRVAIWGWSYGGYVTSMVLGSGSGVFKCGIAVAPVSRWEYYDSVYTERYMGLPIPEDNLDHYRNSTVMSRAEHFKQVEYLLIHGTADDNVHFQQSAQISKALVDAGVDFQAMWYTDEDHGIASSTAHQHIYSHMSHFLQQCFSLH
smiles,measurement,setting,value
CCC(C)C(N)C(=O)N1CCCC1B(O)O (stereo not shown) [Ile-boroPro],"Bioavailability judged from dose response of inhibition of serum DPP-IV, subcutaneous versus oral",[1],more bioavailable
same,"Suppression of tumor growth, subcutaneous versus oral administration (tumor volumes on day 20)","[2]; 2-, 5- or 10-μg doses twice daily",more effective than oral administration in suppressing tumor growth
same,"Tumor sizes, subcutaneous compared to oral","[2]; 2-μg dose twice daily, P<0.0005",significantly smaller
same,"Tumor sizes, subcutaneous compared to oral","[2]; 5-μg dose twice daily, P<0.005",significantly smaller
same,Tumor sizes (mean tumor volumes) on day 20 versus saline control,"[2]; oral gavage, P<0.05",significant reduction in tumor sizes
same,Incidence of tumor rejection (%),"[2]; oral, 10 μg twice daily day 2 to day 19, 2 separate experiments",caused tumor rejection
same,Tumor sizes (mean tumor volumes) on day 20 versus saline control,"[2]; subcutaneous injection, P<0.00005",significant reduction in tumor sizes
same,Incidence of tumor rejection (%),"[2]; subcutaneous, 2 μg twice daily day 2 to day 19, one experiment",60%
same,Incidence of tumor rejection (%),"[2]; subcutaneous, 5 μg twice daily day 2 to day 19, one experiment",70%
same,Time of maximal increases in serum KC levels after administration,[3],2 h
